{"source": "patent US11129867B2", "about": "“Method of treating cancer cells” (priority 2017, dated 2021)", "key": {"Ca922 cells [1]": {"system": "Ca922 cells", "assay": "WST-8 cell viability assay, Ca922", "type": "cell-based, human", "procedure": "(§1) Human oral squamous cell carcinoma (OSCC) cell lines, Ca922, OSC20, OECM-1, OC3, CGHNC9, HSC3, plus A549, MDA-MB-231, MCF7, Huh7, HeLa-Kyoto, Detroit 562, H520, H2170, and 293T cells were used in this study. Ca922, CGHNC9, MDA-MB-231, MCF7, Huh7, HeLa-Kyoto, Detroit 562, and 293T cells were all cultured in high-glucose Dulbecco's Modified Eagle Medium (DMEM). OSC20 and HSC3 cells were cultured in Dulbecco's Modified of Eagle's Medium/Ham's F-12 50/50 Mix (1:1). OECM-1, A549, H520, and H2170 cells were grown in RPMI-1640 medium. All culture media were supplemented with 10% fetal bovine serum (FBS) and 1% penicillin-streptomycin. OC3 cells were cultured in 1:1 DMEM/KSFM (keratinocyte serum-free medium) with supplied supplement of Bovine pituitary extract (BPE) and epidermal growth factor (EGF) followed by instruction. All the cells in this study were maintained at 37° C. in humidified atmosphere containing 5% CO2.\n(§2) WST-8 [2-(2-methoxy-4-nitrophenyl)-3-(4-nitrophenyl)-5-(2,4-disulfophenyl)-2H-tetrazolium, monosodium salt] cell viability assay\n(§3) Cells were seeded into 96 well plate and incubated at 37° C. overnight. Endpoint measures of TMR-GBP or drugs were performed by water soluble tetrazolium salt (WST-8)-based colorimetric assay in triplicate which measures the metabolic conversion of WST-8 into formazan by mitochondrial dehydrogenases present in viable cells. The amount of formazan produced is proportional to the number of live cells and is expressed as cellular viability. When time was up, media were removed and supplemented with WST-8 cell viability reagent-contained cell culture medium (1:10) and incubated at 37° C. for 2 hours. Besides, three wells with WST-8-dissolved medium only (without cells) were reserved as a background control. Cell viability was measured at the absorbance of 450/655 nm wavelength by ELISA reader."}, "phospho-γH2Ax": {"system": "phospho-γH2Ax", "assay": "Immunofluorescence staining of phospho-γH2Ax (DNA damage)", "type": "cell-based, human", "details": "Ca922, H2O2 positive control, FIG. 10A", "procedure": "Representative images showing DAPI-labelled nucleus (shown in blue) co-stained with phospho-γH2Ax (green). Ca922 cells were treated with 25 μM TMR-GBP for 12 or 24 hours followed by immunofluorescence staining. Foci in the nucleus indicated damaged DNA. Scale bar indicates 10 μm.\nAt least 20 cells were counted in each category. Bars indicate standard deviations from three independent experiments.\nImmunofluorescence Staining\nCells grown on coverslips were washed with 1×PBS and fixed by PTEMF buffer (20 mM PIPES pH 6.8, 0.2% Triton X-100, 10 mM EGTA, 1 mM MgCl2, and 4% formaldehyde) or 4% paraformaldehyde for 10 minutes at room temperature. Then, fixation buffer was replaced with 1×PBST and the cells were washed with 1×PBST for another 10 minutes at room temperature. Coverslips were washed with 1×PBST twice gently and incubated with primary antibodies at room temperature for 1 hour. Next, washed with PBST for three times (2, 2, 5 minutes). Afterwards, coverslips were cultured in Alex Fluor-conjugated secondary antibodies and DAPI at room temperature for 30 minutes, washed three times (2, 2, 5 minutes), rinsed with ddH2O and mounted with mounting medium. Antibodies concentration used in this analysis is 1:1000 dilution. Images were acquired with specific fluorescence wavelength by Leica DMI6000 inverted microscope equipped with HCX PL FL 100λ/NA1.40 objective and EMCCD camera. All images were analyzed by MetaMorph software."}, "Ca922 cells [2]": {"system": "Ca922 cells", "assay": "Annexin V staining with flow cytometry", "type": "cell-based, human", "details": "Ca922, 1% H2O2 positive control, FIG. 6A", "procedure": "[…] Diluted 10× Binding Buffer to 1× using distilled water. Washed cells once in PBS, then once in 1× Binding Buffer. Resuspended cells in 1× Binding Buffer at 1-5×10^6/mL. Next, added 5 μL of fluorochrome-conjugated Annexin V to 100 μL of the cell suspension. Sample was incubated 10-15 minutes at room temperature. Afterwards, washed cells in 1× Binding Buffer and resuspend in 200 μL of 1× Binding Buffer. Analyzed by flow cytometry within 4 hours, storing at 2-8° C. in the dark."}, "H2170": {"system": "H2170", "assay": "WST-8 cell viability assay, H2170", "type": "cell-based", "procedure": "as §1, §2, §3"}, "H520": {"system": "H520", "assay": "WST-8 cell viability assay, H520", "type": "cell-based", "procedure": "as §1, §2, §3"}, "Detroit 562": {"system": "Detroit 562", "assay": "WST-8 cell viability assay, Detroit 562", "type": "cell-based", "procedure": "as §1, §2, §3"}, "Ca922 cells [3]": {"system": "Ca922 cells", "assay": "Time-lapse live cell imaging, Ca922", "type": "cell-based", "details": "Ca922, 12.5 μM, exposed to 532 nm, 488 nm, 405 nm and brightfield, after 20 hours, FIG. 2", "procedure": "Ca922 cells were grown on 35 mm culture dishes overnight then treated with 1% DMSO, 12.5 μM TMR, GBP, TMR-GBP respectively and monitored by time-lapse live cell microscope. Cells were exposed to indicate wavelength once every 4 hours for 100 ms and continuously for 20 hours. At least 300 cells in five different fields were counted for each experiment using microcopy that captured images under 10× magnification. Mortality rate was evaluated by counting the percentage of dead cells in the whole population. Standard deviations of three independent experiments were indicated as bars.\nTime-Lapse Live Cell Imaging\nIn order to monitor cell morphology and the stability of TMR-GBP, cells were incubated in 35 mm dish or 4 well dish at 37° C. overnight. Replaced the culture medium with CO2-independent medium with supplement of 10% fetal bovine serum (FBS) and 1% penicillin-streptomycin, cells were treated with reagent (TMR, GBP, TMR-GBP) for the time according to the experiment and subjected to time-lapse live cell imaging. Cells were maintained on the microscope stage incubator at 37° C. Multiple-positional time-lapse imaging was performed using an automated Leica DMI6000 inverted microscope equipped with an HCX PL FL 20λ/NA0.4 objective and Andor Luca R EMCCD camera. Images of cells were taken at different interval time and analyzed by MetaMorph software."}}, "note": "Like-named read-outs stand apart in the source and are kept apart here. Where no end group is shown, it is not given here.", "data": [{"compound": "O=C(O)CN(CCOCCOCCN(CC(=O)O)CC(=O)O)CC(=O)O", "note": "[EGTA, ethylene glycol tetraacetic acid, reference compound]", "values": [{"measurement": "effect on cell viability", "setting": "Ca922 cells [1]; Ca922, 1 mM EGTA, 50 hours, FIG. 8A", "result": "no significant effect on cell viability"}]}, {"compound": "OO", "note": "[H2O2, reference compound]", "values": [{"measurement": "phospho-γH2Ax foci in the nucleus (DNA damage)", "setting": "phospho-γH2Ax", "result": "many foci were observed accumulating in the nucleus"}, {"measurement": "apoptosis by Annexin-V-FITC labeling", "setting": "Ca922 cells [2]", "result": "induces apoptosis in Ca922"}]}, {"compound": "CN(C)c1ccc2c(-c3ccccc3C(=O)[O-])c3ccc(N(C)C)cc3[o+]c2c1", "note": "[TMR, Tetramethylrhodamine, reference compound]", "values": [{"measurement": "cytotoxicity (cell viability)", "setting": "H2170; H2170 (lung cancer), different concentrations, 48 hours, FIG. 5", "result": "neither TMR-GBPR3QW4R nor TMR alone induce cytotoxicity"}, {"measurement": "cytotoxicity (cell viability)", "setting": "H520; H520 (lung cancer), different concentrations, 48 hours, FIG. 5", "result": "neither TMR-GBPR3QW4R nor TMR alone induce cytotoxicity"}, {"measurement": "cytotoxicity (cell viability)", "setting": "Detroit 562; Detroit 562 (pharynx cancer), different concentrations, 48 hours, FIG. 5", "result": "neither TMR-GBPR3QW4R nor TMR alone induce cytotoxicity"}, {"measurement": "cytotoxicity under light stress (mortality)", "setting": "Ca922 cells [3]", "result": "more sensitive to 532 nm light stress and displayed cytotoxic effects"}, {"measurement": "cytotoxicity (cell viability)", "setting": "Ca922 cells [1]; Ca922 (oral cancer), different concentrations, 48 hours, FIG. 5", "result": "neither TMR-GBPR3QW4R nor TMR alone induce cytotoxicity"}]}, {"compound": "TMR-GBPR3QW4R: TMR conjugate of peptide GBPR3QW4R, NYQRRCKNQN (SEQ ID NO. 4) (not fully specified (N-terminus); also: TMR conjugate, site not given here; listed as Homo sapiens)", "values": [{"measurement": "cytotoxicity (cell viability)", "setting": "H2170", "result": "neither TMR-GBPR3QW4R nor TMR alone induce cytotoxicity"}, {"measurement": "cytotoxicity (cell viability)", "setting": "H520", "result": "neither TMR-GBPR3QW4R nor TMR alone induce cytotoxicity"}, {"measurement": "cytotoxicity (cell viability)", "setting": "Detroit 562", "result": "neither TMR-GBPR3QW4R nor TMR alone induce cytotoxicity"}, {"measurement": "cytotoxicity (cell viability)", "setting": "Ca922 cells [1]", "result": "neither TMR-GBPR3QW4R nor TMR alone induce cytotoxicity"}]}, {"compound": "TMR-GBPW4R: TMR conjugate of peptide GBPW4R, NYRRRCKNQN (SEQ ID NO. 3) (not fully specified (N-terminus); also: TMR conjugate, site not given here; listed as Homo sapiens)", "values": [{"measurement": "cytotoxicity (cell viability)", "setting": "H2170", "result": "could induce cytotoxicity"}, {"measurement": "cytotoxicity (cell viability)", "setting": "H520", "result": "could induce cytotoxicity"}, {"measurement": "cytotoxicity (cell viability)", "setting": "Detroit 562", "result": "could induce cytotoxicity"}]}]}
